Reference: patent US20170333509A1, “MAILLARD REACTION PRODUCT-DECOMPOSING AGENT” (ARKRAY, Inc., priority 2016, published 2017)

Experiments:
[1] = AGEs Cross-Link Breaking Effect Confirmatory Test 1 (benzoic acid from PPD by reverse-phase HPLC); assay type: biochemical; conditions: plant extract (hot water, 80° C.) or 10 mmol/L PTB : 10 mmol/L PPD : 0.2 mol/L phosphate buffer pH 7.4 = 5:1:4, 37° C., eight hours, n=3
Protocol: The test was carried out according to the description in […] al. (Nature, 382, pp 275-278 (1996)). […] A plant extract, 10 mmol/L of PPD, and 0.2 mol/L of phosphate buffer solution (pH 7.4) were mixed together at a ratio of 5:1:4 and then were reacted at 37° C. for eight hours (n=3). After completion of the reaction, hydrochloric acid was added thereto to stop the reaction. […] The amount of benzoic acid contained in the reaction solution was determined by subtracting the amount of benzoic acid contained in the sample, which was measured separately. Since 1 mol of PPD produces 1 mol of benzoic acid, the cross-link breaking rate was calculated by the following formula. Cross-link breaking rate (%)={(A-B)/C}×100 A: The amount of benzoic acid contained in the reaction solution B: The amount of benzoic acid contained in the sample C: The amount of PPD provided for the reaction (the amount of the substrate) As a control, a test was carried out using 10 mmol/L of PTB instead of the plant extract.

[2] = system: AGEs modified bovine serum albumin (AGE-BSA) cross-linked to collagen; experiment: AGEs Cross-Link Breaking Effect Confirmatory Test 2 (AGE-BSA cross-linked to collagen-coated microplate, ELISA); assay type: biochemical; conditions: cross-link breaking reaction at 37° C. for 18 hours
Protocol: The test was carried out according to the description in Sara Vasan et al. (Nature, 382, pp 275-278 (1996)).
300 μL/well of SuperBlock T20 (PBS) Blocking Buffer was added to a commercially available 96-well microplate precoated with collagen, which then was reacted at 37° C. for one hour. After the reaction, it was washed with 0.05% polyethylene (20) sorbitan monolaurate (Tween 20)/PBS(−), and then AGEs modified bovine serum albumin (AGE-BSA) was added to each well of the microplate, which then was subjected to a crosslinking reaction at 37° C. for four hours. After the reaction, it was washed with Tween 20/PBS(−). Thereafter, a plant extract was added to each well and thereby it was subjected to a cross-link breaking (cleaving) reaction at 37° C. for 18 hours. After that, it was washed with Tween 20/PBS(−) and a primary antibody (anti-albumin bovine serum rabbit-polyclonal) was added thereto, which then was reacted at room temperature for 30 minutes. […] As a reaction stop solution, 1N HCl was added thereto, and the absorbance at 450 nm (dominant wavelength)/630 nm (complementary wavelength) was measured with a microplate reader. The amount of AGE-BSA that remained was determined from a calibration curve in which the amount of AGE-BSA was varied. Furthermore, the AGE-BSA decomposition rate (Collagen cross-link decomposition rate) was determined using the following formula. […]

| SMILES | Cross-Link Breaking Rate (%) (Mean Value ± Standard Deviation) [1] | Collagen Cross-Link Decomposition Rate (%) (AGE-BSA decomposition rate) [2] | Amount of Remaining AGE-BSA ([2]; absorbance 450 nm/630 nm, calibration curve) |
| --- | --- | --- | --- |
| O=C(C[n+]1ccsc1)c1ccccc1.[Br-] [PTB, N-phenacylthiazolium bromide] | 20.47 ± 0.29% | – | – |
| O=C1O[C@H]2[C@@H]3OC(=O)c4cc(O)c(O)c(O)c4-c4c(O)c(O)c5oc(=O)c6c(c(O)c(O)c7oc(=O)c4c5c76)-c4c(cc(O)c(O)c4O)C(=O)OC[C@H]3OC(O)[C@@H]2OC(=O)c2cc(O)c(O)c(O)c2-c2c1cc(O)c(O)c2O (mixture of isomers) [Punicalagin, punicalagin] | – | 65.7% | 343.3 ng |
